Assays:
[1] = tested on: cultured human donor mast cells (dMCs); assay: Mast cell activation test (MAT): CD63 upregulation on donor mast cells passively sensitized with patients' sera (dMCIgE+), flow cytometry; type: cell-based; settings: for CD63 upregulated after activation / CD63 upregulation: dMCIgE+ sensitized with patients' sera, mean; for CD63 upregulated after activation: first donor, 20 min; for CD63 upregulation: second donor; for up-regulation of CD63 (% of the cells): donor MCs passively sensitized with serum containing chlorhexidine-reactive IgE antibodies, FIG. 7
Experimental: Human MCs were cultured as described in Cop N, et al. Influence of IL-6, IL-33, and TNF-alpha on human mast cell activation: Lessons from single cell analysis by flow cytometry. Cytometry B Clin Cytom 2018; 94:405-11. Briefly, peripheral blood mononuclear cells were isolated from 50 mL peripheral blood from healthy volunteers. CD34^+ progenitor cells were enriched using the EasySep Human CD34 Selection Kit (Stemcell Technologies, Vancouver, Canada) according to the manufacturer's instructions. Isolated CD34^+ progenitor cells were cultured in a serum-free methylcellulose-based medium (MethoCult SF H4236, Stemcell Technologies) supplemented with penicillin (100 units/mL, Life Technologies, Waltham, USA), streptomycin (100 μg/mL, Life Technologies), low-density lipoprotein (LDL, 10 μg/mL, Stemcell Technologies), 2-mercaptoethanol (55 μmol/L, Life Technologies), stem cell factor (SCF, 100 ng/mL, Miltenyi Biotec, Bergisch Gladbach, Germany), interleukin-3 (IL-3, 100 ng/mL, PeproTech, Rocky Hill, USA) and interleukin-6 (IL-6, 50 ng/mL, Miltenyi Biotec) during 4-5 weeks. Participants gave a written informed consent as approved by the Ethical Committee of the University Hospital of Antwerp (Belgium B300201316408).
Degranulation of dMC was measured by overnight passively sensitizing the cells with serum at 37° C. in a humidified CO2-incubator. Next, dMC^IgE+ were centrifuged (500 g, 5 minutes, 20° C.) and the cell pellet was resolved in pre-warmed Tyrode's buffer (Sigma-Aldrich, St. Louis, USA) at a concentration of 0.5×10^6 cells/mL. Thereafter, 100 μL of the cells were pre-incubated with IL-33 (100 ng/mL) (Peprotech) for 20 minutes on 37° C. Subsequently, these pre-incubated dMC^IgE+ were stimulated with 100 μL Tyrode's buffer as a negative control or 100 μL of CHX (Sigma-Aldrich) during 20 minutes at 37° C. The final concentrations of CHX were: 0.05, 5, 500, 50 000 ng/mL, i.e. 0.0028, 0.28, 28; 2800 nM). Reactions were stopped by placing the cells on ice and removing the supernatants (500 g, 5 minutes, 4° C.). Cells were stained with monoclonal anti-human CD117-APC (clone 104D2, BD Biosciences, Erembodegem, Belgium), CD203c-PeCy7 (clone NP4D6, eBioscience) and CD63-FITC (clone H5C6, BD Bioscience) for 20 minutes at 4° C. Finally, cells were washed and resolved in PBS with 0.1% sodium azide and measured. Degranulation of dMCs was measured as surface upregulation of the lysosomal degranulation marker CD63. The mast cell activation test is repeated on dMCs of two different volunteers.
Flow cytometric analysis was performed on a FACSCanto II flow cytometer (BD Immunocytometry Systems, San Jose, Calif.) equipped with three lasers (405 nm, 488 nm and 633 nm). Correct compensation settings for antibodies conjugated with fluorochromes were performed using BD CompBeads (BD Biosciences). Flow cytometric data were analyzed using Kaluza Analysis 1.5 software (Beckman Coulter, USA). Unstained samples were used to set a marker between positive and negative cells according to the 99th percentile. A fluorescence minus one (FMO) was used to set a marker between positive and negative cells. Mast cells were gated out as CD117 and CD203c positive cells. Results are expressed as mean and range.
Human MCs were obtained as described in Example 1. Sera from patients with perioperative anaphylaxis were selected based on the presence of sIgE against rocuronium >0.13 kUa/L and a positive skin test rocuronium. MC activation was determined as described in Example 1 and cells were stimulated during 3 and 20 minutes, preferably 20 minutes, with final concentrations of rocuronium of 1.64, 16.4, 164 and 1640 μM.
Human MCs were obtained as described in Example 1.

[2] = tested on: cultured human donor mast cells (dMCs); assay: Direct mast cell activation: CD63 upregulation on donor mast cells not passively sensitized with serum (dMCIgE-); type: cell-based; settings: for CD63 upregulation / activation of unsensitized (unloaded) mast cells: MCs not passively sensitized with patients' serum

SMILES	CD63 upregulation (degranulation) ([1]; dMC sensitized with sera of patients with isolated sIgE CHX (negative skin test and BAT))	CD63 upregulated after activation ([1]; CHX 0.05 ng/mL (0.0028 nM), printed range 1-22)	CD63 upregulated after activation ([1]; CHX 5 ng/mL (0.28 nM), printed range 1-76)	CD63 upregulated after activation ([1]; CHX 500 ng/mL (28 nM), printed range 6-86)	CD63 upregulated after activation ([1]; CHX 50000 ng/mL (2800 nM), printed range 0-88)	CD63 upregulation ([1]; CHX 0.05 ng/mL (0.0028 nM), printed range 0-21)	CD63 upregulation ([1]; CHX 5 ng/mL (0.28 nM), printed range 2-44)	CD63 upregulation ([1]; CHX 500 ng/mL (28 nM), printed range 3-64)	CD63 upregulation ([1]; CHX 50000 ng/mL (2800 nM), printed range 0-73)	up-regulation of CD63 (% of the cells) [1]	CD63 upregulation / activation of unsensitized (unloaded) mast cells [2]	CD63 upregulation / activation of unsensitized (unloaded) mast cells ([2]; listed as CHX)	CD63 upregulation after stimulation ([1]; dMCIgE+ sensitized with serum of a rocuronium-allergic patient, rocuronium end concentration 164 μM, representative plot FIG. 6)	CD63 upregulation after stimulation ([2]; dMCIgE- not passively sensitized, rocuronium end concentration 164 μM, representative plot FIG. 6)
[H]/N=C(\N/C(=N/[H])NCCCCCCNC(=N)NC(=N)Nc1ccc(Cl)cc1)Nc1ccc(Cl)cc1 [chlorhexidine, 1:6-di(4-chlorophenyldiguanido)-hexane]	no upregulation of CD63	1%	10%	57%	31%	2%	7%	30%	45%	18%	did not upregulate CD63	could not elicit activation/degranulation	–	–
CCCCCCCCN=c1ccn(CCCCCCCCCCn2ccc(=NCCCCCCCC)cc2)cc1 [octenidine]	–	–	–	–	–	–	–	–	–	18%	did not upregulate CD63	–	–	–
C=CC[N+]1([C@H]2C[C@H]3[C@@H]4CC[C@H]5C[C@H](O)[C@@H](N6CCOCC6)C[C@]5(C)[C@H]4CC[C@]3(C)[C@H]2OC(C)=O)CCCC1 [rocuronium]	–	–	–	–	–	–	–	–	–	–	–	–	24%	0%
